From patent US12521423B2, “Method and composition for treating gastrointestinal inflammatory disorders” (THE REGENTS OF THE UNIVERSITY OF COLORADO, a body corporate, priority 2019, dated 2026)
Like-named read-outs stand apart in the source and are kept apart here.

Legend:
[1] = tested on: colonic adenylate and energy metabolism; conditions: Hpx 1 mM enema 5 and 18 h before sacrifice
Method: To assess the influence of purine supplementation on colonic adenylate and energy metabolism, MDP was depleted by treating mice with streptomycin, and reconstituted by administration of Hpx (1 mM) by enema at time points of 5 and 18 h before sacrifice and distal colon tissue metabolite extracts analyzed.

DSS colitis = conditions: for body weight lost: no Hpx ~9; for sterility index: from 0; for tissue AEC: from 0.30; for BiP: from 0.41; for sterile inner mucin layer: from ~1; for colon length: no Hpx ~5.75
Method: (§1) To validate the role of exogenous purine supply on colonic function, streptomycin-treated mice (S-0 mM HPX-DSS) were supplemented with 1 and 5 mM Hpx (S-1 mM HPX-DSS and S-5 mM HPX-DSS) in their drinking water and submitted to DSS colitis.

[2] = 10 mM Hpx in drinking water
Method: as §1

T84 cells [3] = experiment: HPLC adenylate and energy metabolite analyses of treated T84 cells; assay type: cell-based
T84 cells [4] = experiment: calcium switch assay / transepithelial resistance of T84 monolayers; assay type: cell-based
Method: This model utilizes transient divalent cation chelation to disrupt epithelial tight junctions in fully confluent cells.
Briefly, polarized, high-resistant (>1,500 Ω·cm2) T84 monolayers on 0.33 cm^2 (non-metabolomic) or 5 cm^2 (metabolomics) transwell inserts (Costar, 0.4 μm) were equilibrated for 1 h in HBSS in the case of non-metabolomic analyses and approx. 20 h in the case of metabolomic analyses. All experiments were performed at 37° C. and transepithelial resistance monitored using a voltohmeter (World Precision Instruments EVOM). Extracellular Ca^2+ was chelated via washing and incubation with Ca^2+-free HBSS supplemented with 2 mM EDTA for 5 min, after which the samples were washed into HBSS with normal calcium (1.8 mM).
To our surprise, this analysis identified an inverse correlation between Hpx and barrier, with Hpx spiking from approx. 1 to 3.5 μM (p<0.004) at the barrier nadir. […] To extend this observation, T84 cells were supplemented with Hpx (range 0.1-1 mM, 20 h) and a calcium switch assay performed.
Allopurinol (Allo) is a structural analog of hypoxanthine commonly used to treat gout. The drug is metabolized into oxipurinol by xanthine oxidase (XO), which in turn inhibits XO and decreases uric acid. Allopurinol was employed as a competitive substrate/inhibitor for hypoxanthine-guanine phosphoribosyl transferase (HGPRT) to assess the contribution of Hpx salvage to the barrier formation process using the calcium switch assay and transepithelial resistance measurements described above.

T84 cells [5] = conditions: 1 mM Hpx
Method: To examine the impact of Hpx supplementation on epithelial function during physiologically-relevant metabolic stress, T84 cells were exposed to hypoxia (1% O2, 40 h) in the presence and absence of 1 mM Hpx, and barrier and adenylate metabolites monitored.

T84 cells [6] = conditions: 1 mM hypoxanthine, 88 h, p<0.001
Method: We also employed a scratch wound assay to assess the influence of Hpx supplementation on cellular restitution. T84 cells were plated at 35,000 cells per well on a 96-well ImageLock tissue culture plate (Essen Bioscience Inc.) and incubated in standard conditions until a confluent cell monolayer formed (˜24 h). Precise and reproducible wounds were made in all wells with a WoundMaker (Essen Bioscience Inc.). […] Initial images were taken immediately after wounding at 10× using the IncuCyte live-cell imaging (Essen Bioscience Inc.), and then every 2 h over the course of 88 h in culture. Relative wound closure (%) was quantified for every image using the relative wound density metric, a measure of cell density in the wound area relative to the cell density outside of the wound area.

DSS-induced colitis = experiment: DSS colitis in CR mice, streptomycin treatment and K12 colonization; conditions: colon tissue
Excerpt: (§2) Bacterial supply of purine was depleted in CR mice (CR-CNTL) via streptomycin treatment (S-CR-CNTL), and reconstituted by colonization with streptomycin-resistant K12 (S-CR-K12).
Visualization of the colon tissues by hematoxylin and eosin (H&E) staining in the CR mouse groups reveal two key differences between tissue with and without MDP supply. […] These phenotypes correlate with the adenylate energy charge (AEC, (ATP+0.5×ADP)/(ATP+ADP+AMP))—a commonly used index used to indicate cellular energy status that is defined by relative adenine nucleotide levels, providing a more functionally relevant indicator of energy balance than ATP and/or PCr alone.
Given the association between the AEC and cellular function and the metabolic data indicative of MDP promoting flux through ATP, the colon tissue analyses were extended to Ki67 as marker of proliferation.
Due to the importance of ATP supply for ER function, the colon tissue immunofluorescent analyses were extended to BiP as a marker of ER stress and the UPR.
Goblet cells require robust ER function for mucin protein folding and dimerization, prompting analyses of the impact of MDP on colonic mucin production and secretion. To observe mucin production tissue sections were stained with alcian blue. […]

murine microbiota = experiment: HPLC analyses of murine fecal extracts after streptomycin treatment; assay type: in vivo, mice
Excerpt: Analyses of soluble, extracellular murine fecal metabolite extracts by HPLC identified substantial levels of available purine (˜550 nmol/g), primarily as hypoxanthine (Hpx, ˜350 nmol/g). The production of purines by the microbiota was verified by fecal extract analyses of streptomycin-treated mice, which decreased the available fecal purine more than 80%, lowering available Hpx to <50 nmol/g.

[7] = tested on: total colonic purine levels; experiment: colon tissue metabolites at baseline in CR mice, streptomycin treatment and K12 colonization; assay type: in vivo; conditions: no DSS
Excerpt: as §2

[8] = subconfluent T84 cells, Allo 20 h

With `O=c1[nH]cnc2nc[nH]c12` [Hpx, hypoxanthine] the “colonic AMP” value ([1]; from 58) was 84 nmol/g, the “colonic ADP” value ([1]; from 80) was 123 nmol/g and the “colonic ATP” value ([1]; from 192) was 154 nmol/g. The total colonic purine ([1]; from 490) was 560 nmol/g, the “colonic phosphocreatine (PCr)” value ([1]; from 3700) was 2000 nmol/g and the body weight lost (DSS colitis; 1 mM Hpx in drinking water) was about 3%. For the same compound, the sterility index (DSS colitis; 1 mM Hpx) was 0.56, the tissue proliferation (DSS colitis; 1 mM Hpx, from 0.22) was 0.54 Ki67/DAPI and the “tissue AEC” value (DSS colitis; 1 mM Hpx) was 0.38. For the same compound, the BiP (DSS colitis; 1 mM Hpx) was 0.23 BiP/DAPI, the “sterile inner mucin layer” value (DSS colitis; 1 mM Hpx) was about 9 μm and the colon length (DSS colitis; 1 mM Hpx) was about 6.3 cm. It also gave a body weight lost (DSS colitis; 5 mM Hpx in drinking water) of about 7%, a tissue proliferation (DSS colitis; 5 mM Hpx, control 0.22) of 0.19 Ki67/DAPI and a sterility index (DSS colitis; 5 mM Hpx) of 0.78. The “tissue AEC” value (DSS colitis; 5 mM Hpx) was 0.42, the BiP (DSS colitis; 5 mM Hpx) was 0.24 BiP/DAPI and the “sterile inner mucin layer” value (DSS colitis; 5 mM Hpx) was about 11 μm. The colon length (DSS colitis; 5 mM Hpx) was about 6.5 cm, the “epithelial cell population and mucin production (H&E)” value (DSS colitis; Hpx supplementation) was “recovered” and the “goblet cell mucin production, thecal volumes” value (DSS colitis; Hpx supplementation) was “increased thecal volumes”. For the same compound, the urination [2] was “excessively urinate”, the “increase of intracellular Hpx levels” value (T84 cells [3]; T84 cells, Hpx 0.1-1 mM, 20 h pre-exposure) was “up to 100 fold” and the “barrier throughout the course of the experiment” value (T84 cells [4]; 300 μM and 1 mM Hpx, p<0.03) was “improved barrier”. For the same compound, the “cellular barrier and barrier reformation (calcium switch)” value (T84 cells [4]; Hpx pre-loading 0.1-1 mM, 20 h) was “protective of cellular barrier and promoted barrier reformation in a dose-responsive manner”, the “total available energy (TAE) under hypoxia” value (T84 cells [5]; hypoxia 1% O2) was “significant recovery” and the “increase of overall barrier resistance above control conditions” value (T84 cells [5]; hypoxia 1% O2, 40 h) was “approx. 1.3 fold”. The “increase of epithelial wound closure rate following scratching” value (T84 cells [6]) was “approx. 1.5 fold”.
For `Nc1ncnc2c1ncn2[C@@H]1O[C@H](COP(=O)(O)OP(=O)(O)O)[C@@H](O)[C@H]1O` [ADP, adenosine diphosphate], the “Hpx increase in T84 IECs” value (T84 cells [3]; 100 μM ADP) was about 15 fold.
For `Oc1ncnc2[nH]ncc12` [Allo, Allopurinol], the “Adenine, IMP, and UA levels” value (T84 cells [3]; [8]) was “undetectable to trace levels”, the TAE (T84 cells [3]; [8]) was “corresponding increase” and the “Xan and Ino levels” value (T84 cells [3]; [8]) was “small increases”. For the same compound, the PCr level (T84 cells [3]; subconfluent T84 cells, Allo 20 h, from approx. 20) was about 27 µM, the Hpx level (T84 cells [3]; subconfluent T84 cells, Allo 20 h, from approx. 400) was about 250 nM and the Ado level (T84 cells [3]; subconfluent T84 cells, Allo 20 h, from trace/undetectable) was “approx. 400 nM”. For the same compound, the “T84 cell barrier formation” value (T84 cells [4]; Allo 1 mM, p<0.001) was “significantly attenuated”.
For `[H]/N=C(/N)N[C@H]1[C@H](O)[C@@H](O)[C@H](O[C@@H]2O[C@@H](C)[C@](O)(C=O)[C@H]2O[C@@H]2O[C@@H](CO)[C@H](O)[C@@H](O)[C@@H]2NC)[C@@H](N/C(N)=N\[H])[C@@H]1O` [streptomycin], the “goblet cell thecal volumes (alcian blue)” value (DSS-induced colitis) was “broad decline”, the “adenylate energy charge (AEC)” value (DSS-induced colitis; CR-CNTL-DSS 0.51) was 0.44 and the measurable fecal hypoxanthine (murine microbiota; 1 day after streptomycin treatment) was “nearly complete loss”. For the same compound, the “available fecal Hpx” value (murine microbiota; streptomycin-treated mice) was under 50 nmol/g, the “decrease of available fecal purine” value (murine microbiota; streptomycin-treated mice) was “more than 80%” and the “colon tissue Xan” value ([7]; CR-CNTL 207) was 69 nmol/g. For the same compound, the “total colonic purine levels” value ([7]; CR-CNTL 809) was 630 nmol/g.
For `Nc1ncnc2c1ncn2[C@@H]1O[C@H](CO)[C@@H](O)[C@H]1O` [adenosine], the “Hpx increase in T84 IECs” value (T84 cells [3]; 1 mM adenosine) was “over 150 fold”.
